System: Mycobacterium tuberculosis
Test: Antimicrobial activity against Mycobacterium bovis BCG
Format: functional
Details: variant bovis BCG

| SMILES | MIC [µM] |
| --- | --- |
| CCOC(=O)c1cc(COc2cc(C(F)(F)F)nc3c(C(F)(F)F)cccc23)on1 | < 0.5 |
| O=C(O)c1cc(COc2cc(C(F)(F)F)nc3c(C(F)(F)F)cccc23)on1 | > 128 |

Reference: ChEMBL document CHEMBL1157741, “Synthesis and antituberculosis activity of novel mefloquine-isoxazole carboxylic esters as prodrugs” (Bioorg Med Chem Lett, 2010)
